In patent US20230053540A1, “TREATMENT OF LIVER INJURY” (Massachusetts Institute of Technology, priority 2019, published 2023):

Tested on: hepatocytes
Test: Seq-Well scRNA-Seq of hepatocytes after APAP overdose (signature scores, DEG vs untreated)
Format: in vivo, mouse
[1] = A24 (24 h post-APAP) vs other clusters, Wilcox

CC(=O)Nc1ccc(O)cc1 [APAP, acetaminophen]
Vcam1 avg_logFC (A6 vs UT): 0.4574 | Vcam1 pct.1 (A6 vs UT): 0.134 | Vkorc1 avg_logFC (A6 vs UT): −0.4042 | Vkorc1 pct.1 (A6 vs UT): 0.296 | Vsig4 avg_logFC (A6 vs UT): 0.4833 | Vsig4 pct.1 (A6 vs UT): 0.117 | Wbp1l avg_logFC (A6 vs UT): 0.5535 | Wdr26 avg_logFC (A6 vs UT): 0.4325 | Wdr26 pct.1 (A6 vs UT): 0.549 | Wfdc17 avg_logFC (A6 vs UT): 0.4867 | Wfdc17 pct.1 (A6 vs UT): 0.177 | Xbp1 avg_logFC (A6 vs UT): 0.6032 | Xrn2 A6logFC (A6 vs UT): 0.2985 | Xrn2 avg_logFC (A6 vs UT): 0.2985 | Xrn2 pct.1 (A6 vs UT): 0.387 | Yap1 A6logFC (A6 vs UT): 0.3281 | Ythdc1 A6logFC (A6 vs UT): 0.2641 | Ythdc1 avg_logFC (A6 vs UT): 0.2641 | Ythdc1 pct.1 (A6 vs UT): 0.301 | Ywhag avg_logFC (A6 vs UT): 0.5824 | Zbtb20 avg_logFC (A6 vs UT): 0.4715 | Zbtb20 pct.1 (A6 vs UT): 0.566 | Zfand5 A6logFC (A6 vs UT): 0.2882 | Zfand5 avg_logFC (A6 vs UT): 0.2882 | Zfand5 pct.1 (A6 vs UT): 0.401 | Zfp106 A6logFC (A6 vs UT): 0.3369 | Zfp106 avg_logFC (A6 vs UT): 0.3369 | Zfp106 pct.1 (A6 vs UT): 0.391 | Zfp259 A6logFC (A6 vs UT): 0.2556 | Zfp259 avg_logFC (A6 vs UT): 0.2556 | Zfp259 pct.1 (A6 vs UT): 0.32 | mmu-mir-6240 avg_logFC (A6 vs UT): 1.101 | mt-Co2 avg_logFC (A6 vs UT): −1.105 | mt-Co3 avg_logFC (A6 vs UT): −0.7059 | mt-Co3 pct.1 (A6 vs UT): 0.346 | mt-Nd1 avg_logFC (A6 vs UT): −0.3883 | mt-Nd4 avg_logFC (A6 vs UT): −0.6388 | n-R5-8s1 avg_logFC (A6 vs UT): 0.7661 | avg_logFC AA474408 [1]: 0.4148 | avg_logFC Abca1 [1]: 0.3831 | avg_logFC Acly [1]: 0.4101 | avg_logFC Acox1 [1]: 0.2743 | avg_logFC Acsl4 [1]: 0.299 | avg_logFC Adh4 [1]: 0.392 | avg_logFC Ak3 [1]: 0.2505 | avg_logFC Aox3 [1]: 0.3489 | avg_logFC Arcn1 [1]: 0.3044 | avg_logFC Atp8b1 [1]: 0.361 | avg_logFC Atp11c [1]: 0.2568 | avg_logFC Atxn1 [1]: 0.325 | avg_logFC Calm1 [1]: 0.3702 | avg_logFC Calu [1]: 0.3005 | avg_logFC Canx [1]: 0.2771 | avg_logFC Cltc [1]: 0.3397 | avg_logFC Cmah [1]: 0.4243 | avg_logFC Copa [1]: 0.3334 | avg_logFC Cps1 [1]: 0.2775 | avg_logFC Ctnnb1 [1]: 0.329 | avg_logFC Cxcl1 [1]: 0.453 | avg_logFC Cyb5r3 [1]: 0.3097 | avg_logFC Ddost [1]: 0.2909 | avg_logFC Dhcr24 [1]: 0.2824 | avg_logFC Dnajb11 [1]: 0.3288 | avg_logFC Dnajc12 [1]: 0.3241 | avg_logFC Echdc1 [1]: 0.2818 | avg_logFC Edem1 [1]: 0.2675 | avg_logFC Efna1 [1]: 0.3161 | avg_logFC Eif4g1 [1]: 0.2763 | avg_logFC Eif4g2 [1]: 0.3515 | avg_logFC Eprs [1]: 0.2513 | avg_logFC Etnk1 [1]: 0.3194 | avg_logFC Fam120a [1]: 0.2583 | avg_logFC Fasn [1]: 0.2699 | avg_logFC Fndc3b [1]: 0.3202 | avg_logFC Fos [1]: 0.3632 | avg_logFC Gjb2 [1]: 0.2998 | avg_logFC Gm5424 [1]: 0.262 | avg_logFC Gm24245 [1]: 0.414 | avg_logFC Grlf1 [1]: 0.2556 | avg_logFC Hnf4a [1]: 0.255 | avg_logFC Hs3st3b1 [1]: 0.3219 | avg_logFC Hsd3b5 [1]: 0.3009 | avg_logFC Hsd17b2 [1]: 0.3231 | avg_logFC Hspa13 [1]: 0.342 | avg_logFC Ibtk [1]: 0.2959 | avg_logFC Il6st [1]: 0.3011 | avg_logFC Il13ra1 [1]: 0.2889 | avg_logFC Insig1 [1]: 0.4125 | avg_logFC Kmo [1]: 0.2687 | avg_logFC Lasp1 [1]: 0.2608 | avg_logFC Lgr4 [1]: 0.2572 | avg_logFC Lman1 [1]: 0.2518 | avg_logFC Lpgat1 [1]: 0.2525 | avg_logFC Lrg1 [1]: 0.3096 | avg_logFC Lrp1 [1]: 0.4837 | avg_logFC Lrrc59 [1]: 0.2688 | avg_logFC Met [1]: 0.2512 | avg_logFC Mlec [1]: 0.3405 | avg_logFC Mtss1 [1]: 0.2522 | avg_logFC Mtus1 [1]: 0.3125 | avg_logFC Mug2 [1]: 0.3166 | avg_logFC Nab1 [1]: 0.2601 | avg_logFC Nars [1]: 0.3127 | avg_logFC Nedd4 [1]: 0.3306 | avg_logFC Nr1d2 [1]: 0.3855 | avg_logFC Nr5a2 [1]: 0.2599 | avg_logFC Nrp1 [1]: 0.33 | avg_logFC Ostc [1]: 0.3082 | avg_logFC Pnpla7 [1]: 0.3966 | avg_logFC Prg4 [1]: 0.4007 | avg_logFC Prkd3 [1]: 0.3041 | avg_logFC Proz [1]: 0.28 | avg_logFC Pten [1]: 0.2663 | avg_logFC Ptprf [1]: 0.2888 | avg_logFC Qsox1 [1]: 0.2818 | avg_logFC Rab1 [1]: 0.3145 | avg_logFC Rdx [1]: 0.276 | avg_logFC Rpn1 [1]: 0.3992 | avg_logFC Rrbp1 [1]: 0.2968 | avg_logFC Sdf2l1 [1]: 0.3078 | avg_logFC Sec31a [1]: 0.2596 | avg_logFC Sec61b [1]: 0.3008 | avg_logFC Sel1l [1]: 0.2833 | avg_logFC Sh3bgrl [1]: 0.2668 | avg_logFC Slc3a1 [1]: 0.3074 | avg_logFC Slc38a10 [1]: 0.2557 | avg_logFC Spcs3 [1]: 0.3907 | avg_logFC Srebf1 [1]: 0.3149 | avg_logFC Srp72 [1]: 0.28 | avg_logFC Srpr [1]: 0.2914 | avg_logFC Ssr1 [1]: 0.3129 | avg_logFC Stard4 [1]: 0.2922 | avg_logFC Stt3b [1]: 0.2648 | avg_logFC Tmed7 [1]: 0.3715 | avg_logFC Tmem30a [1]: 0.3056 | avg_logFC Trip12 [1]: 0.2832 | avg_logFC Txndc5 [1]: 0.2758 | avg_logFC Uggt1 [1]: 0.2805 | avg_logFC Uso1 [1]: 0.3202 | avg_logFC Usp4 [1]: 0.2959 | avg_logFC Usp9x [1]: 0.3387 | avg_logFC Zbtb20 [1]: 0.3135 | Atp11c A24logFC (A24 vs UT): 0.2605 | Brd2 A24logFC (A24 vs UT): 0.2664 | Caprin1 A24logFC (A24 vs UT): 0.2628 | Copz1 A24logFC (A24 vs UT): 0.2577 | Ctsc A24logFC (A24 vs UT): 0.3004 | Ddost A24logFC (A24 vs UT): 0.2504 | Deptor A24logFC (A24 vs UT): 0.2606 | Eif4b A24logFC (A24 vs UT): 0.256 | Fasn A24logFC (A24 vs UT): 0.2914 | Gm20594 A24logFC (A24 vs UT): −0.36 | Lasp1 A24logFC (A24 vs UT): 0.253 | Proz A24logFC (A24 vs UT): 0.2632 | Rnf13 A24logFC (A24 vs UT): 0.2553 | Ubb A24logFC (A24 vs UT): −0.2593 | avg_logFC 1110008F13Rik (A24 vs untreated (UT)): −0.4553 | avg_logFC AA474408 (A24 vs untreated (UT)): 0.4364 | avg_logFC Aadac (A24 vs untreated (UT)): −0.4038 | avg_logFC Abca1 (A24 vs untreated (UT)): 0.4394 | avg_logFC Acaa1b (A24 vs untreated (UT)): −0.8508 | avg_logFC Acot1 (A24 vs untreated (UT)): −0.2862 | avg_logFC Acox1 (A24 vs untreated (UT)): 0.2752 | avg_logFC Acsl1 (A24 vs untreated (UT)): −0.3703 | avg_logFC Acsl4 (A24 vs untreated (UT)): 0.3147 | avg_logFC Actb (A24 vs untreated (UT)): 0.3845 | avg_logFC Adh1 (A24 vs untreated (UT)): −0.342 | avg_logFC Adh4 (A24 vs untreated (UT)): 0.3769 | avg_logFC Ahcy (A24 vs untreated (UT)): −0.563 | avg_logFC Ak3 (A24 vs untreated (UT)): 0.289 | avg_logFC Akr1c6 (A24 vs untreated (UT)): −0.3176 | avg_logFC Alas1 (A24 vs untreated (UT)): −0.4898 | avg_logFC Aldh3a2 (A24 vs untreated (UT)): −0.3008 | avg_logFC Ankrd55 (A24 vs untreated (UT)): −1.874 | avg_logFC Aox3 (A24 vs untreated (UT)): 0.2878 | avg_logFC Apcs (A24 vs untreated (UT)): 0.6067 | avg_logFC Apoa2 (A24 vs untreated (UT)): −0.5455 | avg_logFC Apoa5 (A24 vs untreated (UT)): −0.299 | avg_logFC Apob (A24 vs untreated (UT)): 0.4272 | avg_logFC Apoc1 (A24 vs untreated (UT)): −0.3803 | avg_logFC Apoc3 (A24 vs untreated (UT)): −0.4404 | avg_logFC Apoc4 (A24 vs untreated (UT)): −0.4285 | avg_logFC Apoe (A24 vs untreated (UT)): −0.4213 | avg_logFC Arcn1 (A24 vs untreated (UT)): 0.3278 | avg_logFC Arrdc3 (A24 vs untreated (UT)): 0.5269 | avg_logFC Atp8b1 (A24 vs untreated (UT)): 0.3628 | avg_logFC Atp5h (A24 vs untreated (UT)): −0.5795 | avg_logFC Atxn1 (A24 vs untreated (UT)): 0.3049 | avg_logFC B2m (A24 vs untreated (UT)): −0.418 | avg_logFC BC025446 (A24 vs untreated (UT)): 0.2942 | avg_logFC Bhmt (A24 vs untreated (UT)): −0.5202 | avg_logFC C3 (A24 vs untreated (UT)): 0.4495 | avg_logFC C8a (A24 vs untreated (UT)): 0.3337 | avg_logFC C8b (A24 vs untreated (UT)): 0.3187 | avg_logFC C8g (A24 vs untreated (UT)): −0.482 | avg_logFC Calm1 (A24 vs untreated (UT)): 0.4131 | avg_logFC Calr (A24 vs untreated (UT)): 0.5551 | avg_logFC Calu (A24 vs untreated (UT)): 0.3041 | avg_logFC Canx (A24 vs untreated (UT)): 0.3434 | avg_logFC Cat (A24 vs untreated (UT)): 0.2626 | avg_logFC Cebpb (A24 vs untreated (UT)): −0.4716 | avg_logFC Ces1c (A24 vs untreated (UT)): −0.2783
